“Also recorded” adds a separate entry of the source. Read-outs that look alike come from different tables or passages of the source.
Tests used:
TZM-bl cells [1] = test: MTT cell proliferation; details: for TI (toxicity index; ratio of cytotoxicity to neutralization IC50 values): MTT assay; for cellular cytotoxicity (in words): MTT cell proliferation assay; for cytotoxic at concentrations above: cellular cytotoxicity assays
[2] = tested on: HIV-1 YU2 pseudotyped viral particles; details: neutralization assay
[3] = tested on: HIV-1 BaL virions (gp120); test: HIV-1 virion capture assay with gp120-specific mAbs; type: binding; details: peptide 50 μM; sCD4–2D-treated HIV-1 BaL; captured p24 Gag by AlphaLISA
[4] = Peptide stability in PBS and cell growth medium with serum; type: in vitro ADME; details: PBS and cell growth medium (DMEM) complemented with fetal bovine serum, 37 °C, 5% CO2, 24 h monitoring; LC–MS
[5] = tested on: amphotropic pseudotyped murine leukemia virus; test: Neutralization of amphotropic pseudotyped murine leukemia virus; type: cell-based
[6] = tested on: vesicular stomatitis virus; type: cell-based
[7] = tested on: HIV-1 YU2 pseudotyped viral particles; details: read-out: IC50 YU2 (R5); TZM-bl cells; cited from earlier work
HIV-1 BaL26 (R5) = details: read-out: IC50 BaL26 (R5); TZM-bl cells; cited from earlier work
HIV-1 HxB2 (X4) = details: read-out: IC50 HxB2 (X4); cited from earlier work
HIV-1 NL4–3 (X4) = details: read-out: IC50 NL4–3 (X4); cited from earlier work
TZM-bl cells [8] = details: effects on host cell line TZM-bl; cited from earlier work
[9] = tested on: YU2 pseudotyped HIV virus; details: combination 2C:Nt, cited from earlier work

## Ac-SSHFPFSQRQFWK-NH2 [14-1]
TZM-bl cells [1]
  TI (toxicity index; ratio of cytotoxicity to neutralization IC50 values): >500 to 1000 µM

## Ac-SSHFPFSQVQFWK-NH2 [14-5]
[2]
  activity against R5-tropic strain YU2 (in words): low activity
TZM-bl cells [1]
  TI (toxicity index; ratio of cytotoxicity to neutralization IC50 values): >500 µM

## Ac-CSSYYPFSQYQWWK-NH2 [20-5]
TZM-bl cells [1]
  cellular cytotoxicity (in words): nontoxic at relevant concentrations

## Ac-CSSHFPWSQVQFWK-NH2 [16-7]
TZM-bl cells [1]
  TI (toxicity index; ratio of cytotoxicity to neutralization IC50 values): >75 µM
  cellular cytotoxicity (in words): cytotoxic

## Ac-SSHFPYSQYQFWK-NH2 [12-1]
TZM-bl cells [1]
  TI (toxicity index; ratio of cytotoxicity to neutralization IC50 values): >500 to 1000 µM

## Ac-CSSHFPYSQFQFWK-NH2 [16-4]
TZM-bl cells [1]
  TI (toxicity index; ratio of cytotoxicity to neutralization IC50 values): >100 µM
  cellular cytotoxicity (in words): cytotoxic

## Ac-YSSYFPFSQYQWWK-NH2 [40-2]
[3]
  inhibition of virion capture by mAb 19b: effectively blocked virus capture
  inhibition of virion capture by mAb 268-D: effectively blocked virus capture
  inhibition of virion capture by mAb 48d: effectively blocked virus capture; also recorded: to a lesser extent
  inhibition of virion capture by mAb B4e8 (V3 tip): neither 2C nor 40-2 blocked capture; also recorded: neither inhibited virion capture
  inhibition of virion capture by mAb D19 (V3 tip): neither 2C nor 40-2 blocked capture; also recorded: neither inhibited virion capture
[4]
  glutathione (GST) adduct formation (in words): never detected GST adducts
TZM-bl cells [1]
  TI (toxicity index; ratio of cytotoxicity to neutralization IC50 values): >250 µM
  cellular cytotoxicity (in words): nontoxic at relevant concentrations

## Ac-CSSHFPFSQVQFWK-NH2 [16-6]
TZM-bl cells [1]
  TI (toxicity index; ratio of cytotoxicity to neutralization IC50 values): >5 µM
  cellular cytotoxicity (in words): cytotoxic

## Ac-CSSYFPWSQYQWWK-NH2 [30-2]
TZM-bl cells [1]
  TI (toxicity index; ratio of cytotoxicity to neutralization IC50 values): >500 µM
  cellular cytotoxicity (in words): nontoxic at relevant concentrations
TZM-bl cells [1]; effects on host cell line TZM-bl, standard deviations averaged 20%, Non-toxic = nontoxic at 500 μM
  LC50: Non-toxic^f

## Ac-SSHFPWSQYQFWK-NH2 [12-4]
[2]
  activity against R5-tropic strain YU2 (in words): modest gains in potency
TZM-bl cells [1]
  TI (toxicity index; ratio of cytotoxicity to neutralization IC50 values): >500 µM

## Ac-SSHFPFSQYQFWK-NH2 [12-2]
[2]
  activity against R5-tropic strain YU2 (in words): modest gains in potency
TZM-bl cells [1]
  TI (toxicity index; ratio of cytotoxicity to neutralization IC50 values): >500 µM

## Ac-CSSYFPFSQYQFWK-NH2 [18-2]
TZM-bl cells [1]
  TI (toxicity index; ratio of cytotoxicity to neutralization IC50 values): >63 to 125 µM
  cytotoxic at concentrations above: above 65 μM

## Ac-CSSHFPFSQYQFWK-NH2 [16-2]
TZM-bl cells [1]
  TI (toxicity index; ratio of cytotoxicity to neutralization IC50 values): >63 to 250 µM
  cytotoxic at concentrations above: above 65 μM

## Ac-SSHFPWSQRQFWK-NH2 [14-2]
TZM-bl cells [1]
  TI (toxicity index; ratio of cytotoxicity to neutralization IC50 values): >500 to 1000 µM

## Ac-CSSHFPYSQYQFWK-NH2 [2C, reference compound]
[3]
  inhibition of virion capture by mAb 19b: effectively blocked virus capture
  inhibition of virion capture by mAb 268-D: effectively blocked virus capture
  inhibition of virion capture by mAb 48d: effectively blocked virus capture; also recorded: to a lesser extent
  inhibition of virion capture by mAb B4e8 (V3 tip): neither 2C nor 40-2 blocked capture; also recorded: neither inhibited virion capture
  inhibition of virion capture by mAb D19 (V3 tip): neither 2C nor 40-2 blocked capture; also recorded: neither inhibited virion capture
[4]
  glutathione (GST) adducts detected starting around: around 30 min
[5]
  activity toward amphotropic pseudotyped murine leukemia virus (in words): inactive
[6]
  activity toward vesicular stomatitis virus (in words): inactive
[7]
  IC50: 28 ± 7 µM
HIV-1 BaL26 (R5)
  IC50: 65 ± 3 µM
HIV-1 HxB2 (X4)
  IC50: 54 µM
HIV-1 NL4–3 (X4)
  IC50: 53 ± 2 µM
TZM-bl cells [8]
  LC50: 190 µM
[9]; ratio 1:1
  dose reduction index (DRI): 2.1 ± 0.4
[9]; ratio 1:2
  dose reduction index (DRI): 2.6 ± 0.5
[9]; ratio 1:5
  dose reduction index (DRI): 4.9 ± 1.0

## Ac-SSHFPVSQYQFWK-NH2 [12-3]
[2]
  activity against R5-tropic strain YU2 (in words): modest gains in potency
TZM-bl cells [1]
  TI (toxicity index; ratio of cytotoxicity to neutralization IC50 values): >5 µM
  cellular cytotoxicity (in words): cytotoxic

## Ac-CSSYFPFSQYQWWK-NH2 [20-2]
[4]
  glutathione (GST) adducts detected starting around: around 30 min
TZM-bl cells [1]
  TI (toxicity index; ratio of cytotoxicity to neutralization IC50 values): >250 µM
  cellular cytotoxicity (in words): nontoxic at relevant concentrations

## Ac-SSHFPWSQVQFWK-NH2 [14-6]
[2]
  activity against R5-tropic strain YU2 (in words): low activity
TZM-bl cells [1]
  TI (toxicity index; ratio of cytotoxicity to neutralization IC50 values): >200 µM

## Ac-CSSHFPFSQFQFWK-NH2 [16-5]
TZM-bl cells [1]
  TI (toxicity index; ratio of cytotoxicity to neutralization IC50 values): >50 µM
  cellular cytotoxicity (in words): cytotoxic
